Assays:
TK-10 = assay: Growth inhibition of human TK10 cells after 48 hrs by sulforhodamine B assay; assay type: functional; settings: TK-10, 48 h
786-0 = assay: Growth inhibition of human 786-0 cells after 48 hrs by sulforhodamine B assay; assay type: functional; settings: 786-0, 48 h
SK-MEL-2 = assay: Growth inhibition of human SK-MEL-2 cells after 48 hrs by sulforhodamine B assay; assay type: functional; settings: SK-MEL-2, 48 h
HeLa [1] = assay: Antiproliferative activity against human HeLa cells overexpressing wild type beta3 tubulin after 48 hrs by sulforhodamine B assay; assay type: functional, cell-based
[2] = Growth inhibition of human OVCAR8 cells after 48 hrs by sulforhodamine B assay; assay type: functional; settings: OVCAR-8, 48 h
Tubulin (Bos taurus) [3] = biological target: T1, Tubulin (Bos taurus) (UniProt Q6B856+Q862L2+Q862F3); assay: Displacement of [3H]colchicine from bovine brain tubulin assembly at 5 uM
[4] = Growth inhibition of human […] cells after 48 hrs by sulforhodamine B assay; assay type: functional
A549 = assay: Growth inhibition of human A549 cells after 48 hrs by sulforhodamine B assay; assay type: functional; settings: A549, 48 h
[5] = Antiangiogenic activity in VEGF-165 and bFGF-stimulated chicken embryo chorioallantoic membrane assessed as inhibition of blood vessel formation after 40 hrs by microscopy; assay type: functional, tissue-based, Gallus gallus
[6] = Growth inhibition of human PC3 cells after 48 hrs by sulforhodamine B assay; assay type: functional; settings: PC-3, 48 h
K562 = assay: Growth inhibition of human K562 cells after 48 hrs by sulforhodamine B assay; assay type: functional; settings: K562, 48 h
[7] = Growth inhibition of human LOXIMVI cells after 48 hrs by sulforhodamine B assay; assay type: functional; settings: LOX IMVI
IGROV-1 = assay: Growth inhibition of human IGROV1 cells after 48 hrs by sulforhodamine B assay; assay type: functional; settings: IGROV-1, 48 h
A498 = assay: Growth inhibition of human A498 cells after 48 hrs by sulforhodamine B assay; assay type: functional; settings: A498, 48 h
SF-268 = assay: Growth inhibition of human SF268 cells after 48 hrs by sulforhodamine B assay; assay type: functional; settings: SF-268, 48 h
[8] = Growth inhibition of human RXF393 cells after 48 hrs by sulforhodamine B assay; assay type: functional; settings: RXF 393, 48 h
U-251 = assay: Growth inhibition of human U251 cells after 48 hrs by sulforhodamine B assay; assay type: functional; settings: U-251, 48 h
[9] = Growth inhibition of human BT549 cells after 48 hrs by sulforhodamine B assay; assay type: functional; settings: BT-549, 48 h
DU-145 = assay: Growth inhibition of human DU145 cells after 48 hrs by sulforhodamine B assay; assay type: functional; settings: DU-145, 48 h
[10] = Growth inhibition of human MOLT4 cells after 48 hrs by sulforhodamine B assay; assay type: functional; settings: MOLT-4, 48 h
NCI-H226 = assay: Growth inhibition of human NCI-H226 cells after 48 hrs by sulforhodamine B assay; assay type: functional; settings: NCI-H226, 48 h
[11] = Growth inhibition of human UO31 cells after 48 hrs by sulforhodamine B assay; assay type: functional; settings: UO-31, 48 h
[12] = Growth inhibition of human Hs 578T cells after 48 hrs by sulforhodamine B assay; assay type: functional
[13] = Growth inhibition of human SF539 cells after 48 hrs by sulforhodamine B assay; assay type: functional; settings: SF-539, 48 h
SW-620 = assay: Growth inhibition of human SW620 cells after 48 hrs by sulforhodamine B assay; assay type: functional; settings: SW-620, 48 h
[14] = Growth inhibition of human SF295 cells after 48 hrs by sulforhodamine B assay; assay type: functional; settings: SF-295, 48 h
[15] = Growth inhibition of human EKVX cells after 48 hrs by sulforhodamine B assay; assay type: functional
[16] = Antiproliferative activity against human SKOV3 cells overexpressing wild type beta3 tubulin after 48 hrs by sulforhodamine B assay; assay type: functional, cell-based; settings: SK-OV-3, 48 h
[17] = Induction of microtubule depolymerization in rat A10 cells after 18 hrs by indirect immunofluorescence assay; assay type: cell-based
MDA-MB-231 = assay: Growth inhibition of human MDA-MB-231 cells after 48 hrs by sulforhodamine B assay; assay type: functional; settings: MDA-MB-231, 48 h
Tubulin (Bos taurus) [18] = biological target: T1, Tubulin (Bos taurus); assay: Displacement of [3H]colchicine from bovine brain tubulin assembly at 1 uM
SNB-19 = assay: Growth inhibition of human SNB19 cells after 48 hrs by sulforhodamine B assay; assay type: functional; settings: SNB-19, 48 h
[19] = Growth inhibition of human UACC62 cells after 48 hrs by sulforhodamine B assay; assay type: functional; settings: UACC-62, 48 h
[20] = Antiproliferative activity against human SKOV3-MDR1-M6/6 cells overexpressing wild type beta3 tubulin after 48 hrs by sulforhodamine B assay; assay type: functional, cell-based; settings: SKOV3-MDR1-M6/6, 48 h
[21] = Growth inhibition of human HCT116 cells after 48 hrs by sulforhodamine B assay; assay type: functional; settings: HCT-116, 48 h
M14 = assay: Growth inhibition of human M14 cells after 48 hrs by sulforhodamine B assay; assay type: functional; settings: M14, 48 h
[22] = Growth inhibition of human HCT15 cells after 48 hrs by sulforhodamine B assay; assay type: functional; settings: HCT-15, 48 h
A-431 = assay: Antiproliferative activity against human A431 cells after 48 hrs by sulforhodamine B assay; assay type: functional, cell-based; settings: A-431, 48 h
[23] = Growth inhibition of human OVCAR5 cells after 48 hrs by sulforhodamine B assay; assay type: functional; settings: OVCAR-5, 48 h
MCF7 = assay: Growth inhibition of human MCF7 cells after 48 hrs by sulforhodamine B assay; assay type: functional; settings: MCF7, 48 h
NCI-H322M = assay: Growth inhibition of human NCI-H322M cells after 48 hrs by sulforhodamine B assay; assay type: functional
SNB-75 = assay: Growth inhibition of human SNB75 cells after 48 hrs by sulforhodamine B assay; assay type: functional; settings: SNB-75, 48 h
HeLa [24] = assay: Antiproliferative activity against human HeLa cells after 48 hrs by sulforhodamine B assay; assay type: functional, cell-based
MDA-MB-435 [25] = assay: Antiproliferative activity against human MDA-MB-435 cells after 48 hrs by sulforhodamine B assay; assay type: functional, cell-based; settings: MDA-MB-435, 48 h
MDA-MB-435 [26] = assay: Growth inhibition of human MDA-MB-435 cells after 48 hrs by sulforhodamine B assay; assay type: functional; settings: MDA-MB-435, 48 h
[27] = Growth inhibition of human OVCAR3 cells after 48 hrs by sulforhodamine B assay; assay type: functional; settings: OVCAR-3, 48 h
HL-60(TB) = assay: Growth inhibition of human HL-60(TB) cells after 48 hrs by sulforhodamine B assay; assay type: functional; settings: HL-60, 48 h
SK-MEL-28 = assay: Growth inhibition of human SK-MEL-28 cells after 48 hrs by sulforhodamine B assay; assay type: functional; settings: SK-MEL-28, 48 h
NCI-H522 = assay: Growth inhibition of human NCI-H522 cells after 48 hrs by sulforhodamine B assay; assay type: functional; settings: NCI-H522, 48 h
SN12C = assay: Growth inhibition of human SN12C cells after 48 hrs by sulforhodamine B assay; assay type: functional
CCRF-CEM = assay: Growth inhibition of human CCRF-CEM cells after 48 hrs by sulforhodamine B assay; assay type: functional
Malme-3M = assay: Growth inhibition of human MALME-3M cells after 48 hrs by sulforhodamine B assay; assay type: functional

COc1ccc2c(c1)CCCN2c1nc(C)nc2oc(C)cc12
GI50 (TK-10): < 10 nM | GI50 (786-0): < 10 nM | GI50 (SK-MEL-2): < 10 nM | IC50 (HeLa [1]): 9.1 nM | GI50 [2]: < 10 nM | inhibition (Tubulin (Bos taurus) [3]): 96% | GI50 [4]: < 10 nM | GI50 (A549): < 10 nM | IC50 [5]: 104000 nM | GI50 [6]: < 10 nM | GI50 (K562): < 10 nM | GI50 [7]: < 10 nM | GI50 (IGROV-1): < 10 nM | GI50 (A498): < 10 nM | GI50 (SF-268): 16.8 nM | GI50 [8]: < 10 nM | GI50 (U-251): < 10 nM | GI50 [9]: < 10 nM | GI50 (DU-145): < 10 nM | GI50 [10]: 15 nM | GI50 (NCI-H226): 13 nM | GI50 [11]: < 10 nM | GI50 [12]: < 10 nM | GI50 [13]: < 10 nM | GI50 (SW-620): < 10 nM | GI50 [14]: < 10 nM | GI50 [15]: < 10 nM | IC50 [16]: 12.9 nM | EC50 [17]: 21 nM | GI50 (MDA-MB-231): 11.4 nM | inhibition (Tubulin (Bos taurus) [18]): 82% | GI50 (SNB-19): < 10 nM | GI50 [19]: < 10 nM | IC50 [20]: 19.4 nM | GI50 [21]: < 10 nM | GI50 (M14): < 10 nM | GI50 [22]: < 10 nM | IC50 (A-431): 18 nM | GI50 [23]: 43 nM | GI50 (MCF7): < 10 nM | GI50 (NCI-H322M): < 10 nM | GI50 (SNB-75): < 10 nM | IC50 (HeLa [24]): 13.5 nM | IC50 (MDA-MB-435 [25]): 9.8 nM | GI50 (MDA-MB-435 [26]): < 10 nM | GI50 [27]: < 10 nM | GI50 (HL-60(TB)): < 10 nM | GI50 (SK-MEL-28): < 10 nM | GI50 (NCI-H522): < 10 nM | GI50 (SN12C): < 10 nM | GI50 (CCRF-CEM): < 10 nM | GI50 (Malme-3M): < 10 nM

From ChEMBL document CHEMBL3400114, “The design, synthesis and biological evaluation of conformationally restricted 4-substituted-2,6-dimethylfuro[2,3-d]pyrimidines as multi-targeted receptor tyrosine kinase and microtubule inhibitors as potential antitumor agents” (Bioorg Med Chem, 2015)
